pIC50: −log10 of the molar value.
Each molecule was assayed against T1, human GlyT2 (Homo sapiens, UniProt Q9Y345) (assay: Recombinant human GlyT2/3H-glycine uptake assay). Conditions: HEK293 cells over-expressing human GlyT2; Cytostar-T; 3H-glycine 100 nM; 2 hours.
T1 construct: host or cells: HEK293 (HEK293-hGlyT2), cDNA sub-cloned into pcDNA3.1zeo
T1 sequence (Q9Y345 1-797): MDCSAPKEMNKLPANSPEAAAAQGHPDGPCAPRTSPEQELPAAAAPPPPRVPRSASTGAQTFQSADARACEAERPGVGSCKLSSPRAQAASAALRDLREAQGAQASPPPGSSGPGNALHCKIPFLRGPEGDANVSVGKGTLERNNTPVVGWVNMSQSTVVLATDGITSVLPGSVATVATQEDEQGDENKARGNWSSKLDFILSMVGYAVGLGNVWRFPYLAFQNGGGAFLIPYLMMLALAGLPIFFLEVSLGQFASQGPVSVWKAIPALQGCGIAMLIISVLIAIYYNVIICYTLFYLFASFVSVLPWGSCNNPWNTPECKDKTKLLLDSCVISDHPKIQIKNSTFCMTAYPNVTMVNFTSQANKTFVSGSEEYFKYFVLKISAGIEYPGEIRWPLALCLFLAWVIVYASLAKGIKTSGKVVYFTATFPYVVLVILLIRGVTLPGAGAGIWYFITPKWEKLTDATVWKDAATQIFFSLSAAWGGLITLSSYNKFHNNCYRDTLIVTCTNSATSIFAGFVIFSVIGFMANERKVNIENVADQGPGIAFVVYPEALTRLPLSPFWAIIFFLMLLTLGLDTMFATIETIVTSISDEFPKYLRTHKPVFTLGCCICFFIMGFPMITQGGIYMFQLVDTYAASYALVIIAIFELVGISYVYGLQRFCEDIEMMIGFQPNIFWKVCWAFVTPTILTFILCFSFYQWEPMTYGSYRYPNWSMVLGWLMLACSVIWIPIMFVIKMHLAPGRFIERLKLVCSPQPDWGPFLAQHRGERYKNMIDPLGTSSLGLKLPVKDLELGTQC
Format: cell-based
Excerpt: (6) Recombinant Human GlyT2/^3H-Glycine Uptake Assay
The human embryonic kidney 293 cell clone (HEK293-hGlyT2) over-expressing the human GlyT2 transporter was generated (the plasmid pCMV6-XL5-hGlyT2 containing the cDNA coding for the human GlyT2 transporter was obtained from Origene, the cDNA for GlyT2 was taken from this plasmid and sub-cloned into pcDNA3.1zeo from Invitrogen).
Human embryonic kidney 293 (HEK 293) cells are used that stably over-express the human GlyT2 […] which is responsible for the uptake of glycine into these cells.
The uptake of ^3H-glycine into the HEK 293 hGlyT2 cells is monitored using the Cytostar-T assay. This assay format is based on the imported radioactive glycine brought into proximity with the scintillant contained within the base of the plate by virtue of the biological processes within the cells. The radioactive decay is converted to a light signal based on the integration of the scintillation matrix into the assay plate.
Method: ^3H-Glycine Uptake Assay
The hGlyT2 over-expressing HEK 293 cells are cultivated in cell culture medium (DMEM+10% fetal calf serum+100 μg/mL Zeocin). For the assay, the medium of the 90% confluent cultures is removed and the cells are washed with DPBS. The cells are detached by the addition of 2 mL AccuMax and resuspended in 10 mL culture medium. The cell suspension is centrifuged at 1000 U/min for 5 min, the supernatant is removed and cells resuspended in expression medium (MEM (medium without glycine)+10% fetal calf serum) without glycine to 200,000 cells/mL and distributed into the Cytostar-T Scintillating 96-well Microplates (40,000 cells/well; 200 μl/well). The lid covered MTPs are then incubated for 24 hours at 37° C.; 5% CO2.
The following day, the cell plates are washed once with 200 μL HBSS/Ala buffer (HBSS 10× (+Ca, +Mg) with 5 mM Alanine adjusted to pH 7.4 with NaOH) following a 1 h incubation at 37° C.; 5% CO2, and subsequently 100 μL/well of HBSS/Ala containing 1.2× the concentration of compound in 1.2% DMSO (test range final: 100 μM-100 nM) incubated for 20 min at 37° C. Following the addition of 20 μL/well ^3H-glycine in HBSS/Ala (final ^3H-glycine concentration 100 nM) and an incubation for 2 hours at 37° C., the assay plate is placed into the Topcount NXT HTS and the signal is recorded.
The IC50 values of the compounds are calculated in IDBS XLfit by sigmoidal dose-response (variable slope).
O=C(NCc1ccccn1)C1CCN(S(=O)(=O)c2cc(Cl)cc(Cl)c2)CC1 [(I-11)] was tested, and the pIC50 was less than 4.00.
Work on O=C(NCc1ccc(F)cn1)C1CCN(S(=O)(=O)c2cc(Cl)cc(Cl)c2)CC1 [(I-20)] yielded a pIC50 of less than 4.15.
Work on O=C(NCc1ccc(Cl)cc1)C1CCN(S(=O)(=O)c2cc(Cl)cc(Cl)c2)CC1 [(I-5)] yielded a pIC50 of less than 4.00.
Molecule CCOc1cc(Cl)cc(S(=O)(=O)N2CCC(C(=O)NCc3nccs3)CC2)c1 [(I-49)] has a pIC50 of less than 4.00.
Cc1cc(Br)cc(S(=O)(=O)N2CCC(C(=O)NCc3ccccn3)CC2)c1 [(I-61)] showed a pIC50 of less than 4.00.
For Cc1cnc(CNC(=O)C2CCN(S(=O)(=O)c3cc(Cl)cc(Cl)c3)CC2)s1 [(I-27)], the pIC50 was less than 4.00.
O=C(NCc1ccc(F)cc1)C1CCN(S(=O)(=O)c2cc(Cl)cc(Cl)c2)CC1 [(I-10)] was tested, and the pIC50 was less than 4.00.
Molecule O=C(NCc1ccccc1F)C1CCN(S(=O)(=O)c2cc(Cl)cc(Cl)c2)CC1 [(I-2)] has a pIC50 of less than 4.00.
Cc1ccc(CNC(=O)C2CCN(S(=O)(=O)c3cc(Cl)cc(Cl)c3)CC2)nc1 [(I-15)] was tested, and the pIC50 was less than 4.00.
In the case of N#Cc1ccc(CNC(=O)C2CCN(S(=O)(=O)c3cc(Cl)cc(Cl)c3)CC2)cc1 [Example (I-1)], the pIC50 was less than 4.00.

From US10793522B2, “Sulfonamides as inhibitors of the uptake of extracellular citrate” (Boehringer Ingelheim International GmbH, priority 2016, dated 2020)
